Laboratory results taken from publication PMC5013675, “Nucleotide binding by the widespread high-affinity cyclic di-GMP receptor MshEN domain” (Nature Communications, 2016).

Legend:
Format in all cases: binding
[1] = system: VcMshEN_N L54A/L58A
[2] = system: VcMshEN_N L10A
[3] = biological target: VcMshEN L10A/L58A
[4] = system: VcMshEN L10A-L54A-L58A
[5] = system: VcMshEN_N L25A
[6] = system: VcMshEN_N G11L
[7] = system: VcMshEN_N L25A/L29A
[8] = system: VcMshEN_N L10A/L54A/L58A
[9] = system: VcMshEN_N G40I
[10] = biological target: VcMshEN G11L

## Nc1nc2c(ncn2[C@@H]2O[C@@H]3CO[P@](=O)(O)O[C@H]4[C@@H](O)[C@H](n5cnc6c(=O)[nH]c(N)nc65)O[C@@H]4CO[P@](=O)(O)O[C@H]3[C@H]2O)c(=O)[nH]1 [c-di-GMP, Cyclic dimeric GMP]
[1]
  Melting temperature Tm, + c-di-GMP: 54 ºC
[2]
  Melting temperature Tm, + c-di-GMP: 56 ºC
[3]
  Dissociation constant (KD): cannot bind c-di-GMP
  Fold reduction of binding affinity: > 100
[4]
  c-di-GMP binding in vitro: abrogates the ability of VcMshEN to bind c-di-GMP
[5]
  Melting temperature Tm, + c-di-GMP: 60 ºC
[6]
  Melting temperature Tm, + c-di-GMP: 52 ºC
[7]
  Melting temperature Tm, + c-di-GMP: 59 ºC
  Tm Difference: 9 ºC
[8]
  Melting temperature Tm, + c-di-GMP: 53 ºC
[9]
  Melting temperature Tm, + c-di-GMP: 56 ºC
[10]
  Dissociation constant (KD): abrogated c-di-GMP binding
